≈ marks a conversion by molar mass, not a printed value.
Key:
Bibionidae = details: chronic/long-term; duration: 28 days
Canidae = details: acute; oral; Dog Other; mortality
Oryctolagus sp. = details: developmental; development
Colinus virginianus = details: acute; oral; mortality
Daphnia magna = details: chronic/long-term; duration: 21 days; reproduction
Apis mellifera = details: acute; dermal; mortality
Oncorhynchus mykiss = details: chronic/long-term; duration: 21 days; growth
Ictalurus punctatus = details: acute; duration: 96 hours; mortality

**Q.** With `COC(=O)Nc1nc2ccccc2[nH]1` [Carbendazim] as the compound, how does the NOEL (Rattus norvegicus; chronic, organ weight) read?
**A.** 22.5 mg/kg-day

**Q.** And the NOAEL (Rattus norvegicus; developmental, development)?
**A.** 10 mg/kg-day

**Q.** What about the LC50 (Tagia sp.; acute, duration: 14 days, mortality) of the same compound?
**A.** 5.4 mg/kg

**Q.** What about the NOEC (Tagia sp.; chronic/long-term, duration: 56 days) of the same compound?
**A.** 1 mg/kg

**Q.** And the NOEL (Anas platyrhynchos; reproductive)?
**A.** 24.6 mg/kg-day

**Q.** And the LD50 (Anas platyrhynchos; short-term, oral, feed, mortality)?
**A.** 615 mg/kg-day

**Q.** What about the NOEC (Bibionidae) of the same compound?
**A.** 0.0133 mg/L

**Q.** And the LD50 (Canidae)?
**A.** > 5000 mg/kg-day

**Q.** And the NOAEL (Oryctolagus sp.)?
**A.** 10 mg/kg-day

**Q.** What about the LD50 (Colinus virginianus) of the same compound?
**A.** > 2250 mg/kg-day

**Q.** And the NOEC (Daphnia magna)?
**A.** 0.0015 mg/L

**Q.** And the LD50 (Apis mellifera)?
**A.** > 50 µg/piece

**Q.** What about the NOEC (Oncorhynchus mykiss) of the same compound?
**A.** 0.0032 mg/L

**Q.** What about the LC50 (Ictalurus punctatus) of the same compound?
**A.** 0.019 µg/mL (≈ 0.0994 µM)
